In patent US8859760B2, “Compositions for killing or preventing the growth of microbes” (priority 2008, dated 2014):

System: skin of the mice
Test: Skin irritation test in mice (Draize scoring, Primary Irritation Index)
Assay type: in vivo, Balb/c mice
Details: for primary irritation index: 24 hr exposure, scored at 24 and 72 hours; for primary irritation index / evaluation of primary irritation index: mice; for mice with very slight erythema: n=6
Description: Lauryl methyl pyrifrin and TMP, two synthesized meso-substituted cationic porphyrins, were tested in vivo to determine the dermal irritation potential to the skin of the mice. The two test agents were prepared with three different concentrations individually, 3 μM, 30 μM, and 300 μM. 10% formic acid and PBS were used as positive and negative control respectively (n=6). […] The back of the animals were clipped free of fur with an electric clipper at least 4 hours before application of the sample. Prior to the application of test agents, each mouse received four parallel epidermal abrasions with a sterile needle at one side of the test area while the skin at the opposite side remained intact. Under anesthesia condition, a 0.5 ml sample of the test article was then applied to each mouse by introduction under a double gauze layer to an area of skin approximately 1″×1″ (2.54×2.54 cm) square. The patches were backed with plastic, covered with a non reactive tape and the entire test site wrapped with a binder. Animals will be returned to their cages. […] The Primary Irritation Index (P.I.I.) (sum of the scored reactions divided by 24 (two scoring intervals multiplied by two test parameters multiplied by six mice)) of the test article was calculated following test completion. A material producing a P.I.I. score of greater than or equal to 5.00 would be considered positive; the material would be considered a primary irritant to the skin (Table 2).

**Q.** Which primary irritation index (3 μM) does the source give for `CCCCCCCCCCCC[n+]1ccc(-c2c3nc(c(-c4cc[n+](C)cc4)c4ccc([nH]4)c(-c4cc[n+](C)cc4)c4nc(c(-c5cc[n+](C)cc5)c5ccc2[nH]5)C=C4)C=C3)cc1.Cc1ccc(S(=O)(=O)[O-])cc1.Cc1ccc(S(=O)(=O)[O-])cc1.Cc1ccc(S(=O)(=O)[O-])cc1.Cc1ccc(S(=O)(=O)[O-])cc1` [lauryl methyl pyrifrin] here?
**A.** The primary irritation index was 0.00.

**Q.** And the “evaluation of primary irritation index” value (3 μM)?
**A.** Its value is “no irritation”.

**Q.** What about the primary irritation index (30 μM) of the same compound?
**A.** Its primary irritation index is 0.175.

**Q.** And the erythema observed (30 μM, after 24 hours, abraded area implied)?
**A.** Its erythema observed is “very slight erythema”.

**Q.** What about the “mice with very slight erythema” value (30 μM, after 24 hours) of the same compound?
**A.** Its value is 2/6.

**Q.** And the erythema observed (30 μM, after 72 hours)?
**A.** Its erythema observed is “very slight erythema”.

**Q.** What about the “evaluation of primary irritation index” value (30 μM) of the same compound?
**A.** Its value is “irritation barely perceptible”.

**Q.** What about the primary irritation index (300 μM) of the same compound?
**A.** Its primary irritation index is 1.4.

**Q.** What about the edema observed (300 μM, after 24 hours) of the same compound?
**A.** Its edema observed is “Slight edema”.

**Q.** What about the erythema observed (300 μM, after 24 hours, abraded area implied) of the same compound?
**A.** The erythema observed was “very slight erythema”.

**Q.** What about the “mice with very slight erythema” value (300 μM, after 24 hours) of the same compound?
**A.** The value was 6/6.

**Q.** What about the “evaluation of primary irritation index” value (300 μM) of the same compound?
**A.** Its value is “slight irritation”.

**Q.** And the “erythema and edema at the intact area” value (intact area, all concentrations except 300 μM TMP)?
**A.** Its value is “no erythema and edema”.
